Measured values as given in patent US6333338A, “Bispiperidines as antithrombotic agents” (Laboratoire L. Lafon, priority 1998, dated 2001).
Structures can show the parent of a compound that is named as a salt. Where two headings read alike, the source gives them in different places.

Columns and labels:
human platelets = experiment: In vitro inhibition of collagen-induced platelet aggregation, human platelets (PRP); assay type: cell-based; details: 0.05 h, collagen 5 μg/ml, 3 minutes of contact at 37° C., read-out: IC50 (M) in vitro, Man
Experimental: (§1) A study of the inhibitory activity of the compounds of formula I on platelet aggregation was carried out in vitro, i.e. by direct contact of solutions of variable concentrations of the compounds with platelets freshly separated from a sample of total blood, taken under standardized conditions, from laboratory animals (guinea pigs) and from healthy human subjects who have not received any substances or drugs that might interfere with blood clotting. The anti-platelet-aggregating activity was also studied ex vivo/vitro, i.e. after administration of the substances claimed to guinea pigs to measure the intensity and duration of the anti-aggregating action induced by the fraction of the test product absorbed and circulating in the blood.
Venous blood is taken from a group of ten healthy human subjects of the same age, by puncture into a vein of the fold of the elbow and is collected in a glass tube containing aqueous 0.129 M sodium citrate solution (1 volume of citrate solution per 9 volumes of blood). Each tube is then centrifuged a first time at 20° C. and 100 g for 15 minutes in order to obtain the platelet-rich plasma (PRP); after removing this PRP, the tube is again centrifuged at 2000 g for 15 minutes in order this time to remove the platelet-poor plasma (PPP).
For each identified sample of PRP, the platelets are counted using a Coulter ZM counter. Each sample is then used to study the variation in inhibition of the platelet aggregation triggered by the addition of a Chromo-par Reagent collagen glucose solution from Coultronics (used at a concentration of 5 μg/ml) as a function of the addition of increasing concentrations of each compound in a range covering the interval 10^-8 M→10^-5 M, (example of concentrations: 10^-8 M, […], 6×10^-6 M, 4×10^-6 M, 2×10^-6 M, 10^-6 M, […], 10^-5 M). Beforehand, for each compound, an aqueous 10^-3 M solution is prepared. A control test intended to check the possible effect of the solvents (reference value) on the platelet aggregation is introduced into each measurement series, and is measured after 3 minutes of contact at 37° C. with agitation.
From the percentages of inhibition of the platelet aggregation measured for each concentration of each compound, the 50% inhibitory concentration (IC50) is calculated.

guinea pig platelets [1] = experiment: In vitro inhibition of collagen-induced platelet aggregation, guinea pig platelets (PRP); assay type: cell-based, guinea pig (male Dunkin-Hartley); details: Cavia porcellus, Platelet, 0.05 h, collagen 1 μg/ml, 3 minutes of contact at 37° C.
Experimental: as §1
Blood is taken by intracardiac puncture from male Dunkin-Hartley guinea pigs (weighing about 330 g), at a rate of 4.5 ml per 0.5 ml of trisodium citrate (concentration of the aqueous solution: 1.55%) in order to prevent all trace of clotting. The platelet-rich plasma (PRP) is obtained by centrifuging the tubes of total blood for 15 minutes at 150 g.
The PRPs are collected as "pools". The platelets contained in these pools are counted using a Coulter ZM haematology automatic device: if necessary, a dilution is carried out in order for the platelet concentration in the plasma to be between 200,000 and 400,000 platelets/mm^3. Simultaneously, other samples of these pools serve to prepare the platelet-poor plasma (PPP) by centrifugation at 1500 g for 15 minutes.
The kinetic study of the platelet aggregation is carried out by adding a collagen solution (1 μg/ml) to a volume of PRP, using a Chrono-log Corporation aggregometer (490-D1 or 560 VS) which uses an optical detection of the appearance of the thrombus.
The measurements of the aggregation inhibition are carried out after 3 minutes of contact at 37° C. with agitation.

guinea pig platelets [2] = experiment: Ex vivo/vitro inhibition of platelet aggregation after administration via the gastric route in guinea pigs; parameters: species or system guinea pig (Dunkin-Hartley); details: Cavia porcellus, Platelet, 10 mg/kg, fasted guinea pigs
Experimental: as §1, with “blood. Evaluation of the anti-platelet-aggregating activity of the compounds is carried out in the same guinea pigs as those mentioned above (Dunkin-Hartley strain). […] The allocation of the treatments to the animals is random. The blood is taken and then treated under the same conditions as those described above for the in vitro studies. The results of the inhibition of the platelet aggregation obtained for each test concentration make it possible to calculate the IC50 concentration of each test product and the kinetics of the inhibitory effect and its duration of action.” for “blood.”

[3] = 1 h before blood sampling, read-out: % of g.r. inhibition guinea pig ex vivo, d = 10 mg/kg, 1 h
[4] = 2 h before blood sampling, read-out: % of g.r. inhibition guinea pig ex vivo, d = 10 mg/kg, 2 h

Compound | IC50 (human platelets) | IC50 (guinea pig platelets [1]) | inhibition at 10 mg/kg (guinea pig platelets [2]; [3]) | inhibition at 10 mg/kg (guinea pig platelets [2]; [4])
O=C(CNC(=O)C(CCC1CCNCC1)CCC1CCNCC1)NC[C@H](NS(=O)(=O)c1ccc2ccccc2c1)C(=O)O [Example 27, (2S)-2-[(2-Naphthylsulphonyl)amino]-3-{[2-({4-(4-piperidyl)-2-[2-(4-piperidyl)ethyl]butanoyl}amino)acetyl]amino}propanoic Acid Dihydrochloride] | 4.4e-08 M | 19 nM | – | –
Cc1n[nH]c(C)c1S(=O)(=O)NC(CNC(=O)CNC(=O)C(CCC1CCNCC1)CCC1CCNCC1)C(=O)O (centres unmarked) [Example 55, 2-{[3,5-Dimethyl-1H-pyrazol-4-yl)sulphonyl]amino}-3-{[2-({4-(4-piperidyl)-2-[2-(4-piperidyl)ethyl]butanoyl}amino)acetyl]amino}propanoic Acid Dihydrochloride] | – | 3500 nM | -21% | -17%
O=C(CNC(=O)C(CCC1CCNCC1)CCC1CCNCC1)NC[C@H](NS(=O)(=O)c1cccnc1)C(=O)O [Example 56, 2-[(3-Pyridylsulphonyl)amino]3-{[2-({4-(4-piperidyl)-2-[2-(4-piperidyl)ethyl]butanoyl}amino)acetyl]amino}propanoic Acid Trihydrochloride] | – | 230 nM | -61% | -50%
O=C(CNC(=O)C(CCC1CCNCC1)CCC1CCNCC1)NC[C@H](NS(=O)(=O)c1ccc2c(c1)OCO2)C(=O)O [Example 57, 2-[(1,3-Benzodioxol-5-ylsulphonyl)amino]-3-{[2-({4-(4-piperidyl)-2-[2-(4-piperidyl)ethyl]butanoyl}amino)acetyl]amino}propanoic Acid Dihydrochloride] | – | 830 nM | -38% | -24%
O=C(CNC(=O)C(CCC1CCNCC1)CCC1CCNCC1)NCC(NS(=O)(=O)c1ccc2c(c1)OCCO2)C(=O)O (centres unmarked) [Example 58, 2-[(2,3-Dihydro-1,4-benzodioxin-6-ylsulphonyl)amino]-3-{[2-({4-(4-piperidyl)-2-[2-(4-piperidyl)ethyl]butanoyl}amino)acetyl]amino}propanoic Acid Dihydrochloride] | – | 590 nM | -36% | -21%
Cc1cc(S(=O)(=O)NC(CNC(=O)CNC(=O)C(CCC2CCNCC2)CCC2CCNCC2)C(=O)O)c(C)o1 (centres unmarked) [Example 60, 2-{[(2,5-Dimethyl-3-furyl)sulphonyl]amino}-3-{[2-({4-(4-piperidyl)-2-[2-(4-piperidyl)ethyl]butanoyl}amino)acetyl]amino}propanoic Acid Dihydrochloride] | – | 660 nM | -53% | -32%
O=C(CNC(=O)C(CCC1CCNCC1)CCC1CCNCC1)NCC(NS(=O)(=O)c1ccc(C2CCCCC2)cc1)C(=O)O (centres unmarked) [Example 61, 2-{[(4-Cyclohexylphenyl)sulphonyl]amino)-3-{[2-({4-(4-piperidyl)-2-[2-(4-piperidyl)ethyl]butanoyl}amino)acetyl]amino}propanoic Acid Dihydrochloride] | – | 1400 nM | -21% | -9%
O=C(CNC(=O)C(CCC1CCNCC1)CCC1CCNCC1)NCC(NS(=O)(=O)c1ccc(F)c2ccccc12)C(=O)O (centres unmarked) [Example 62, 2-{[(4-Fluoro-1-naphthyl)sulphonyl]amino}-3-{[2-({4-(4-piperidyl)-2-[2-(4-piperidyl)ethyl]butanoyl}amino)acetyl]amino}propanoic Acid Dihydrochloride] | – | 95 nM | -69% | -33%
O=C(CNC(=O)C(CCC1CCNCC1)CCC1CCNCC1)NCC(NS(=O)(=O)c1ccc2c(c1)CCO2)C(=O)O (centres unmarked) [Example 64, 2-[(2,3-Dihydro-1-benzofuran-5-ylsulphonyl)amino]-3-{[2-({4-(4-piperidyl)-2-[2-(4-piperidyl)ethyl]butanoyl}amino)acetyl]amino}propanoic Acid Dihydrochloride] | – | 370 nM | -65% | -5%
O=C(CNC(=O)C(CCC1CCNCC1)CCC1CCNCC1)NC[C@H](NS(=O)(=O)c1ccc(-c2cccs2)cc1)C(=O)O [Example 65, 2-({[4-(2-Thienyl)phenyl]sulphonyl}amino) 3-{[2-({4-(4-piperidyl)-2-[2-(4-piperidyl)ethyl]butanoyl}amino)acetyl]amino}propanoic Acid Dihydrochloride] | – | 200 nM | -65% | -12%
O=C(CNC(=O)C(CCC1CCNCC1)CCC1CCNCC1)NCC(NS(=O)(=O)c1ccccc1-c1cccs1)C(=O)O (centres unmarked) [Example 66, 2-({[2-(2-Thienyl)phenyl]sulphonyl}amino) 3-{[2-({4-(4-piperidyl)-2-[2-(4-piperidyl)ethyl]butanoyl}amino)acetyl]amino}propanoic Acid Dihydrochloride] | – | 350 nM | -18% | 0%
O=C(CNC(=O)C(CCC1CCNCC1)CCC1CCNCC1)NCC(NS(=O)(=O)c1cc2ccccc2o1)C(=O)O (centres unmarked) [Example 68, 2-[(1-Benzofuran-2-ylsulphonyl)amino]-3-{[2-({4-(4-piperidyl)-2-[2-(4-piperidyl)ethyl]butanoyl}amino)acetyl]amino}propanoic Acid Dihydrochloride] | – | 180 nM | -72% | -71%
O=C(CNC(=O)C(CCC1CCNCC1)CCC1CCNCC1)NCC(NS(=O)(=O)Cc1ccc2ccccc2c1)C(=O)O (centres unmarked) [Example 69, 2-{[(2-Naphthylmethyl)sulphonyl]amino}-3-{[2-({4-(4-piperidyl)-2-[2-(4-piperidyl)ethyl]butanoyl}amino)acetyl]amino}propanoic Acid Dihydrochloride] | – | 1900 nM | -69% | -3%
O=C(CNC(=O)C(CCC1CCNCC1)CCC1CCNCC1)NCC(NS(=O)(=O)c1ccc2c(c1)CCC2)C(=O)O (centres unmarked) [Example 70, 2-[(2,3-Dihydro-1H-inden-5-ylsulphonyl)amino]-3-{[2-({4-(4-piperidyl)-2-[2-(4-piperidyl)ethyl]butanoyl}amino)acetyl]amino}propanoic Acid Dihydrochloride] | – | 400 nM | -32% | -34%
O=C(CNC(=O)C(CCC1CCNCC1)CCC1CCNCC1)NCC(NS(=O)(=O)c1ccc2c(c1)CCCC2)C(=O)O (centres unmarked) [Example 72, 2-[(5,6,7,8-Tetrahydro-2-naphthalenylsulphonyl)amino]3-{[2-({4-(4-piperidyl)-2-[2-(4-piperidyl)ethyl]butanoyl}amino)acetyl]amino}propanoic Acid Dihydrochloride] | – | 340 nM | -60% | -67%
